Reference: patent US7176239B2, “Methods and compositions for treatment of Ataxia-telangeictasia” (priority 2003, dated 2007)
Structures can show the parent of a compound that is named as a salt.

Assays:
AT cells (AT22) = assay: Colony forming-efficiency assay, cell survival with increasing CuCl2; assay type: cell-based, human; conditions: AT22 versus VA13 cells, increasing concentrations of CuCl2; FIG. 4A
Procedure: Colony forming-efficiency experiments were performed as previously described (See R. E. Shackelford et al. The Ataxia telangiectasia Gene Product Is Required for Oxidative Stress-induced G1 and G2 Checkpoint Function in Human Fibroblasts, 276 J. BIOL. CHEM. 21951-21959 (2001)). In brief, exponentially growing cells were plated at 2,000 cells/100 mm tissue culture dish in 10 ml appropriate media, allowed to adhere 6 h, […], aspirin, diethylenetriaminepentaacetic acid (DTPA), hygromycin, and desferrioxamine mesylate were obtained from Sigma Chemical Corp (St. Louis, Mo.). Fetal calf serum (FCS) and Dulbecco's Modified Eagle's Medium (DMEM) were obtained from Invitrogen (Rockville, Md.). Culture dishes were obtained from Becton Dickinson (Franklin Lakes, N.J.).
Following treatment, the pates were washed 2× with media, the media replaced, and colonies fixed and stained after 14 days in culture by water: methanol addition (1:1) containing crystal violet (1 g/L). Colonies consisting of cell clusters containing greater than 50 cells were counted under a dissecting microscope. […] Standard deviations (error bars) were calculated from each experimental data point divided by the mean untreated value and averaged between experiments to obtain the mean standard deviation. […]

[1] = system: AT cells (AT22, ATDM-1, ATDM-2); assay: Colony forming-efficiency assay, desferrioxamine/aspirin pretreatment then t-BOOH toxicity; assay type: cell-based, human; conditions: for resistance to the toxic effects of t-BOOH exposure versus length of pretreatment / resistance to the toxic effects of t-BOOH versus concentration of pretreatment agent: AT22 cells; for resistance to the toxic effects of t-BOOH exposure versus length of pretreatment / resistance to t-BOOH toxicity (cell survival, percentage of untreated cells): desferrioxamine 100 μM, aspirin 0.3 mM; for resistance to the toxic effects of t-BOOH exposure versus length of pretreatment: FIG. 9; for resistance to the toxic effects of t-BOOH versus concentration of pretreatment agent: increasing concentrations of desferrioxamine or aspirin, FIG. 10A/10B; for resistance to t-BOOH toxicity (cell survival, percentage of untreated cells): pretreatment, increasing concentrations of t-BOOH, FIG. 8A
Procedure: Colony forming-efficiency experiments were performed as previously described (See R. E. Shackelford et al. The Ataxia telangiectasia Gene Product Is Required for Oxidative Stress-induced G1 and G2 Checkpoint Function in Human Fibroblasts, 276 J. BIOL. CHEM. 21951-21959 (2001)). In brief, exponentially growing cells were plated at 2,000 cells/100 mm tissue culture dish in 10 ml appropriate media, allowed to adhere 6 h, and treated 15 min with varying concentrations of t-BOOH or FeCl2 FeCl2, aspirin, diethylenetriaminepentaacetic acid (DTPA), hygromycin, and desferrioxamine mesylate were obtained from Sigma Chemical Corp (St. Louis, Mo.). Fetal calf serum (FCS) and Dulbecco's Modified Eagle's Medium (DMEM) were obtained from Invitrogen (Rockville, Md.). Culture dishes were obtained from Becton Dickinson (Franklin Lakes, N.J.).
Following treatment, the pates were washed 2× with media, the media replaced, and colonies fixed and stained after 14 days in culture by water: methanol addition (1:1) containing crystal violet (1 g/L). Colonies consisting of cell clusters containing greater than 50 cells were counted under a dissecting microscope. Unless otherwise noted, where desferrioxamine and/or aspirin pretreatment was employed, the cells were plated in desferrioxamine, aspirin, or desferrioxamine and aspirin, and allowed to adhere for 6 h. The plates were then washed 4× with media and treated with t-BOOH as above. Data indicates survival as a percentage of untreated cells. The AT22 and VA13 tumor cell lines were used at passages 20–40. The primary NHF1, ATDM-1, and ATDM-2 cell strains were used at passages 6–18. pEBS7 and pEBS7-YZ5 cells were used at passages 15–20. All experiments were done at least twice in triplicate. Standard deviations (error bars) were calculated from each experimental data point divided by the mean untreated value and averaged between experiments to obtain the mean standard deviation. (FIGS. 6–10B).

[2] = system: AT cells (AT22, ATDM-1, ATDM-2); assay: Colony forming-efficiency assay, long-term culture with iron chelating agent or quercetin; assay type: cell-based, human; conditions: long-term culture (14 days) with increasing concentrations; FIG. 11A, 13A
Procedure: Preparation of cells is as described previously in Example 1. Colony forming-efficiency experiments were performed as previously described (See R. E. Shackelford et al. The Ataxia telangiectasia Gene Product Is Required for Oxidative Stress-induced G1 and G2 Checkpoint Function in Human Fibroblasts, 276 J. BIOL. CHEM. 21951–21959 (2001)). In brief, exponentially growing cells were plated at 2,000 cells/100 mm tissue culture dish in 10 ml appropriate media with an added iron chelating agent and cultured for 14 days. The resulting colonies were fixed and stained after 14 days culture by water:methanol addition (1:1) containing crystal violet (1 g/L). Colonies consisting of cell clusters containing greater than 50 cells were counted under a dissecting microscope. For experiments involving apoferritin or quercetin pre-exposure on t-BOOH resistance, the cells were allowed to adhere 6 h in increasing aopferritin or quercetin concentrations, washed 4× with 3 ml media, treated with 10 mM t-BOOH, washed 1× with 3 ml media, and allowed to grow for 14 days in 10 ml appropriate media. Data indicates survival as a percentage of untreated cells. […] Standard deviations (error bars) were calculated from each experimental data point divided by the mean untreated value and averaged between triplicate experiments to obtain the mean standard deviation. […]

[3] = system: AT cells (AT22, ATDM-1, ATDM-2); assay: Colony forming-efficiency assay, apoferritin/quercetin pretreatment then t-BOOH toxicity; assay type: cell-based, human; conditions: 6 h pretreatment with increasing concentrations, then 10 mM t-BOOH, FIG. 12A, 14A
Procedure: (§1) Preparation of cells is as described previously in Example 1. Colony forming-efficiency experiments were performed as previously described (See R. E. Shackelford et al. The Ataxia telangiectasia Gene Product Is Required for Oxidative Stress-induced G1 and G2 Checkpoint Function in Human Fibroblasts, 276 J. BIOL. CHEM. 21951–21959 (2001)). In brief, exponentially growing cells were plated at 2,000 cells/100 mm tissue culture dish in 10 ml appropriate media with an added iron chelating agent and cultured for 14 days. The resulting colonies were fixed and stained after 14 days culture by water:methanol addition (1:1) containing crystal violet (1 g/L). Colonies consisting of cell clusters containing greater than 50 cells were counted under a dissecting microscope. For experiments involving apoferritin or quercetin pre-exposure on t-BOOH resistance, the cells were allowed to adhere 6 h in increasing aopferritin or quercetin concentrations, washed 4× with 3 ml media, treated with 10 mM t-BOOH, washed 1× with 3 ml media, and allowed to grow for 14 days in 10 ml appropriate media. Data indicates survival as a percentage of untreated cells. The AT22 and VA13 tumor cell lines were used at passages 20–40. The primary NHF1, ATDM-1, and ATDM-2 cell strains were used at passages 6–19. All experiments were done at least twice in triplicate. Standard deviations (error bars) were calculated from each experimental data point divided by the mean untreated value and averaged between triplicate experiments to obtain the mean standard deviation. (FIGS. 11A–14C).

[4] = system: normal cells (VA13, NHF1); assay: as above; assay type: cell-based, human; conditions: 6 h pretreatment with increasing concentrations, then 10 mM t-BOOH, FIG. 12A, 14A
Procedure: as §1

ATDM-1, and ATDM-2 cells = assay: Mitotic delay assay (mitotic index after FeCl2 treatment); assay type: cell-based, human; conditions: increasing concentrations of FeCl2, 15 min treatment, 2 h culture; NHF1 cells for comparison; fluorescence microscopy; FIG. 3
Procedure: Mitotic delay assays were performed as previously described (See R. E. Shackelford et al. The Ataxia telangiectasia Gene Product Is Required for Oxidative Stress-induced G1 and G2 Checkpoint Function in Human Fibroblasts, 276 J. BIOL. CHEM. 21951–21959 (2001)). In brief, cells were plated onto 100 mm tissue culture plates and incubated 48–72 h (to approximately 50% confluency). The cells were then treated with FeCl2 for 15 m as in the colony forming-efficiency assay, washed 2× with media, cultured 2 h, and the media was removed. The cells were fixed in 5 ml cold methanol for 10 min and air-dried. The cells were stained with 0.2 μg/ml 4′,6-diamidino-2-phenylindole (DAPI) in water and examined by fluorescence microscopy. The percentage of mitotic cells (mitotic delay) was determined by counts of 5,000 cells. Mitotic delay experiments were performed in triplicate and the standard deviations were calculated as in the colony forming-efficiency assays. (FIG. 3).

AT cells = AT cells treated with the antioxidant; Gatei et al. 2001; cited from earlier work

[Cl][Cu][Cl] [CuCl2]
cell survival (percentage of untreated cells), sensitivity to CuCl2 (AT cells (AT22)): increased sensitivity

CC(=O)N(O)CCCCCNC(=O)CCC(=O)N(O)CCCCCNC(=O)CCC(=O)N(O)CCCCCN [desferrioxamine, desferrioxamine mesylate]
resistance to the toxic effects of t-BOOH exposure versus length of pretreatment [1]: increases with longer exposure
resistance to the toxic effects of t-BOOH versus concentration of pretreatment agent [1]: increase the resistance
resistance to t-BOOH toxicity (cell survival, percentage of untreated cells) [1]: increased resistance to t-BOOH toxicity

apoferritin
plating efficiency (cell survival, percentage of untreated cells) [2]: increases the plating efficiency
resistance to t-BOOH toxicity (cell survival, percentage of untreated cells) [3]: increased resistance to t-BOOH toxicity
resistance to t-BOOH toxicity (cell survival, percentage of untreated cells) [4]: increased resistance to t-BOOH toxicity

[Cl][Fe][Cl] [FeCl2]
mitotic activity (percentage of the mitotic index of the mock-treated population), G2 checkpoint (ATDM-1, and ATDM-2 cells): induces a pATM-dependent G2 checkpoint

CC(=O)Oc1ccccc1C(=O)O [aspirin]
resistance to the toxic effects of t-BOOH exposure versus length of pretreatment [1]: increases with longer exposure
resistance to the toxic effects of t-BOOH versus concentration of pretreatment agent [1]: increase the resistance
resistance to t-BOOH toxicity (cell survival, percentage of untreated cells) [1]: increased resistance to t-BOOH toxicity

O=C(O)CCCCC1CCSS1 (stereo not drawn) [a-lipoic acid]
genotoxic stress-induced proteins (AT cells): lowered

O=c1c(O)c(-c2ccc(O)c(O)c2)oc2cc(O)cc(O)c12 [quercetin]
plating efficiency (cell survival, percentage of untreated cells) [2]: increases the plating efficiency
resistance to t-BOOH toxicity (cell survival, percentage of untreated cells) [3]: increased resistance to t-BOOH toxicity
resistance to t-BOOH toxicity (cell survival, percentage of untreated cells) [4]: increased resistance to t-BOOH toxicity
